From PMC11295173 (Journal of the American Chemical Society, 2024)
Where two headings read alike, the source gives them in different places. Ends that are not written are not given here.

Tests used:
Circular dichroism (CD) = format: physicochemical; details: bandwidth of 1 nm; buffer spectrum subtracted as blank
[1] = format: binding; parameters: unit not given here; details: 2D MnO2 (1–12 µg mL−1); peptide probe 2 × 10−6 M; PBS (0.01 M, pH 7.4), 2 min, excitation 520 nm; double reciprocal linear fitting
[2] = test system: RBDs from the S-proteins of the five VOCs; assay: Differential sensing of RBDs with S1-S20 (fluorescence, PCA, loading plots); format: binding, SARS-CoV-2; details: PCA and loading plots
RBDs = format: binding, SARS-CoV-2; details: peptide-GO complexes; RBDs 0 to 12 μg mL-1; PBS (0.01 M, pH 7.40); excitation 520 nm
[3] = format: binding; parameters: unit not given here; details: GO (1–15 µg mL−1); peptide probe 2 × 10−6 M; PBS (0.01 M, pH 7.4), 2 min, excitation 520 nm; double reciprocal linear fitting
[4] = format: binding; parameters: unit not given here; details: CNTs (1–8 µg mL−1); peptide probe 2 × 10−6 M; PBS (0.01 M, pH 7.4), 2 min, excitation 520 nm; double reciprocal linear fitting
[5] = format: binding; parameters: unit not given here; details: AuNPs (1–20 µg mL−1); peptide probe 2 × 10−6 M; PBS (0.01 M, pH 7.4), 2 min, excitation 520 nm; double reciprocal linear fitting

Substance | secondary structure (CD spectra) (Circular dichroism (CD)) | binding constant (Ka) [1] | contribution of peptide probes for VOC classification (order, loading plots) [2] | sensitivity of the peptide probes for the RBDs (order, from detection limits) (RBDs) | binding constant (Ka) [3] | binding constant (Ka) [4] | binding constant (Ka) [5]
GI7: heptamer (residues 352–358) from the β3 and β4-sheet of hACE2 (GKGDFRI; UniProt Q9BYF1 352-358, looked up, fragment) | no typical signature of secondary structures | – | – | – | – | – | –
LL7: heptamer (residues 79–85) from α2-helix of hACE2 (LAQMYPL; UniProt Q9BYF1 79-85, looked up, fragment) | no typical signature of secondary structures | – | – | – | – | – | –
QQ19: continuous 19-mer (amino-acid residues 24–42) truncated from the α1-helix of hACE2 (QAKTFLDKFNHEAEDLFYQ; UniProt Q9BYF1 24-42, looked up, fragment) | two minima at 202 and 222 nm, characteristic of α-helices | – | – | – | – | – | –
TI7: fluorescently tagged (5-TAMRA) peptide probe, presumably of GI7 (GKGDFRI; also: 5-TAMRA label, site not given here; UniProt Q9BYF1 352-358, looked up, fragment) | – | 0.1024 | TI26 > TQ26 > TQ19 > TL7 > TI7 | TI26 > TQ26 > TQ19 > TL7 > TI7 | 0.0273 | 0.1462 | 0.0153
TL7: fluorescently tagged (5-TAMRA) peptide probe, presumably of LL7 (LAQMYPL; also: 5-TAMRA label, site not given here; UniProt Q9BYF1 79-85, looked up, fragment) | – | 0.0096 | TI26 > TQ26 > TQ19 > TL7 > TI7 | TI26 > TQ26 > TQ19 > TL7 > TI7 | 0.0319 | 0.0776 | 0.0249
TQ19: fluorescently tagged (5-TAMRA) peptide probe, presumably of QQ19 (QAKTFLDKFNHEAEDLFYQ; also: 5-TAMRA label, site not given here; UniProt Q9BYF1 24-42, looked up, fragment) | – | – | TI26 > TQ26 > TQ19 > TL7 > TI7 | TI26 > TQ26 > TQ19 > TL7 > TI7 | – | – | –
